Tested on: CA1 hippocampal neurons
Assay: Spinogenesis in organotypic hippocampal slice cultures
Format: cell-based, rat
Conditions: HGF 10 ng/ml, 48 hours, organotypic slices
Protocol: (§1) Hippocampi from P4 Sprague Dawley rats were cultured as previously described (Wayman, Impey et al. 2006). Briefly, 400 μm slices were cultured on (Milipore, Billerica, Mass.) for 3 days after which they were biolistically transfected with tomato fluorescent protein (TFP) using a Helios Gen Gun (BioRad, Hercules, Calif.), according to the manufacturer's protocol, to visualize dendritic arbors. Following a 24 hour recovery period slices were stimulated with vehicle (H2O), 1 pM Nle1-AngIV or Dihexa for 2 days. Slices were fixed and mounted. Hippocampal CA1 neuronal processes were imaged and measured as described above.
as §1, with “Gene” for “Gen”, “with” for “with vehicle (H2O),”

Substance: HGF: carrier free adult recombinant Hepatocyte Growth Factor (R and D Systems)
- number of spines per 50 μm dendrite length, CA1 neurons: 18.5
